From PubChem BioAssay (NCI) come the findings set out here.

Among the test systems are NCI-H226 lung; 786-0 renal; OVCAR-8 ovarian; TK-10 renal; HOP-92 NSCLC; UO-31 renal; LOX IMVI melanoma; RXF 393 renal; KM12 colon; MOLT-4 leukemia.
Holding throughout (assay): NCI anticancer screen, dose series, 48 h

Structures are written as SMILES. Several values for one entry are separate records, joined by “and”; a condition that tells them apart may be missing. Equal values may be shown once.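 A five-concentration, 48-hour dose response in 96-well plates underlies each endpoint, interpolated linearly between surrounding concentrations. GI50: concentration for 50% inhibition of growth. TGI marks complete inhibition of growth.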

In the case of `COc1ccc2c(c1)CCC1C2CC[C@@]2(C)C1CC[C@@]2(O)CNC(=O)/C=C/c1ccc(O)c(OC)c1` (stereo not given in full), the GI50 was 22.5 µM in the test on NCI-H226 lung; 23.2 µM with 786-0 renal; 38.4 µM with OVCAR-8 ovarian; 6.86 µM with TK-10 renal; 14.9 µM with HOP-92 NSCLC; 10.3 µM in the test with UO-31 renal. Moreover, the GI50 is 7.76 µM with LOX IMVI melanoma, 21.1 µM with RXF 393 renal and 4.77 µM in the test on KM12 colon. For the same compound, the TGI in the test on NCI-H226 lung was 74.6 µM; with 786-0 renal, more than 100 µM; in the test with OVCAR-8 ovarian, more than 100 µM; in the test with TK-10 renal, more than 100 µM; in the test with HOP-92 NSCLC, 60 µM; in the test with UO-31 renal it was more than 100 µM. Besides, the TGI was 20.5 µM in the test on LOX IMVI melanoma, 78.6 µM in the test with RXF 393 renal and more than 100 µM in the test on KM12 colon.
Regarding `COc1ccc(-c2oc(=O)ccc2C#Cc2cc(OC)c(OC)c(OC)c2)cc1O`, the GI50 in the test on NCI-H226 lung was 50.5 µM; in the test with 786-0 renal it was 24.8 µM; with OVCAR-8 ovarian, 35.2 µM; with TK-10 renal it was 83.9 µM; with HOP-92 NSCLC, 5.47 µM; in the test on MOLT-4 leukemia it was 3.17 µM. The GI50 in the test with UO-31 renal was 30.9 µM; with LOX IMVI melanoma it was 24.2 µM; in the test with RXF 393 renal, 10.9 µM; with KM12 colon, 50 µM. Besides, the TGI in the test with NCI-H226 lung is more than 100 µM; with 786-0 renal, more than 100 µM; in the test on OVCAR-8 ovarian, more than 100 µM; in the test with TK-10 renal, more than 100 µM; with HOP-92 NSCLC it was 31.2 µM; in the test with MOLT-4 leukemia it was more than 100 µM. Also, the TGI in the test with UO-31 renal is more than 100 µM; in the test on LOX IMVI melanoma, more than 100 µM; in the test on RXF 393 renal, 31.9 µM; in the test on KM12 colon it was more than 100 µM.
For `Cc1ccc(S(=O)(=O)N(/N=C(\N)Oc2ccc(Cl)cc2)C(=N)Oc2ccc(Cl)cc2)cc1`, the TGI in the test with NCI-H226 lung, in the test with 786-0 renal, in the test on OVCAR-8 ovarian, in the test on TK-10 renal, in the test with HOP-92 NSCLC and with MOLT-4 leukemia was more than 100 µM each time. In addition, the TGI in the test with UO-31 renal, in the test with LOX IMVI melanoma, in the test on RXF 393 renal and in the test with KM12 colon was more than 100 µM throughout.
Take `Cc1ccc(Cl)cc1Nc1nc(C(F)(F)F)ccc1C(=O)Nc1cccc(C(F)(F)F)c1`: the GI50 in the test on NCI-H226 lung was 6 µM; in the test on 786-0 renal it was 3.16 µM; in the test on OVCAR-8 ovarian, 3.62 µM; with TK-10 renal, 5.58 µM; with HOP-92 NSCLC it was 2.2 µM; with MOLT-4 leukemia, 2.77 µM. For the same compound, the GI50 with UO-31 renal was 2.84 µM; in the test on LOX IMVI melanoma, 3.73 µM; in the test on RXF 393 renal it was 2.7 µM; in the test on KM12 colon, 3.12 µM. Also, the TGI in the test with NCI-H226 lung turned out to be 25.5 µM; in the test on 786-0 renal it was 11.8 µM; in the test on OVCAR-8 ovarian, 15.8 µM; with TK-10 renal, 17.8 µM; with HOP-92 NSCLC it was 8.69 µM; in the test on MOLT-4 leukemia, 10 µM. Moreover, the TGI worked out at 12.7 µM with UO-31 renal, 13.2 µM with LOX IMVI melanoma, 7.92 µM with RXF 393 renal and 12.8 µM in the test with KM12 colon.
Turning to `O=C(/C=C/c1ccc(C(F)(F)F)cc1)c1ccc(Nc2nc(NCCO)nc(NCCO)n2)cc1`, the GI50 was 2.62 µM with NCI-H226 lung; 3.12 µM in the test on 786-0 renal; 3.31 µM in the test with OVCAR-8 ovarian; 2.93 µM in the test on TK-10 renal; 5.28 µM with HOP-92 NSCLC; 2.68 µM in the test with MOLT-4 leukemia. Besides, the GI50 in the test with UO-31 renal is 1.54 µM; in the test on LOX IMVI melanoma, 1.56 µM; in the test with RXF 393 renal, 1.6 µM; in the test on KM12 colon, 2.02 µM. The TGI stood at 9.65 µM with NCI-H226 lung; 10.9 µM with 786-0 renal; 20.2 µM in the test with OVCAR-8 ovarian; 14.5 µM in the test with TK-10 renal; 25 µM in the test with HOP-92 NSCLC; 10.7 µM in the test on MOLT-4 leukemia. In addition, the TGI turned out to be 4.33 µM in the test on UO-31 renal, 3 µM in the test with LOX IMVI melanoma, 3.44 µM in the test on RXF 393 renal and 4.17 µM in the test with KM12 colon.
Consider `C(=N\Nc1nnc2c(n1)[nH]c1ccccc12)/c1cccnc1`, for which the TGI in the test with NCI-H226 lung, in the test on 786-0 renal, with OVCAR-8 ovarian, in the test with TK-10 renal, in the test on HOP-92 NSCLC and in the test on MOLT-4 leukemia was more than 100 µM each time. In addition, the TGI in the test on UO-31 renal, in the test on LOX IMVI melanoma, in the test with RXF 393 renal and in the test on KM12 colon was more than 100 µM in each case.
Turning to `CN(C)c1ccc(/C=C2\C[C@H]3[C@@H]4CC=C5C[C@@H](N6CCCC6)CC[C@]5(C)[C@H]4CC[C@]3(C)[C@H]2O)cc1`, the GI50 in the test on NCI-H226 lung is 14 µM; in the test with 786-0 renal it was 1.84 µM; in the test with OVCAR-8 ovarian it was 2.87 µM; in the test on TK-10 renal it was 3.76 µM; with MOLT-4 leukemia, 4.98 µM; in the test on UO-31 renal, 1.96 µM. Also, the values for the GI50 with LOX IMVI melanoma, in the test with RXF 393 renal and in the test with KM12 colon were 2.25 µM, 3.47 µM and 5.48 µM, respectively. For the same compound, the TGI with 786-0 renal is 1.29 µM and 3.73 µM; in the test with OVCAR-8 ovarian, 1.75 µM and 5.47 µM; in the test on TK-10 renal, 3.17 µM and 11.7 µM; in the test with HOP-92 NSCLC, 4.98 µM; in the test on UO-31 renal it was 1.62 µM and 4.25 µM; with LOX IMVI melanoma, 1.57 µM and 4.72 µM. The TGI in the test with RXF 393 renal is 2.65 µM and 12.3 µM; with KM12 colon it was 10.7 µM and 50.9 µM.
`C=C(C=O)C1CC(=O)C(C(=O)OC)[C@@H]2O[C@@](C)(CC2=O)C[C@@H]2OC(=O)[C@]3(O[C@@H]23)[C@@H](C(=O)OC)C1` (stereo not given in full): the GI50 is 24.9 µM with NCI-H226 lung; 19.3 µM with 786-0 renal; 17.9 µM with OVCAR-8 ovarian; 24.7 µM in the test with TK-10 renal; 16.5 µM in the test on HOP-92 NSCLC; 4.2 µM in the test with MOLT-4 leukemia. For the same compound, the GI50 with UO-31 renal is 19 µM; in the test on LOX IMVI melanoma it was 7.94 µM; in the test on RXF 393 renal, 9.3 µM; with KM12 colon it was 19.2 µM. For the same compound, the TGI in the test with NCI-H226 lung was more than 100 µM; in the test on 786-0 renal, 51 µM; in the test on OVCAR-8 ovarian, 62.4 µM; in the test with TK-10 renal, 42 µM; in the test with HOP-92 NSCLC it was 37.9 µM; in the test with MOLT-4 leukemia it was more than 100 µM. For the same compound, the TGI with UO-31 renal came to 48.9 µM; in the test on LOX IMVI melanoma, 21.3 µM; in the test on RXF 393 renal, 33.6 µM; in the test on KM12 colon it was 45 µM.
